Values quoted from earlier work in patent US20080319015A1, “Insect Repellent Mixture” (priority 2005, published 2008).

Test system: biting mosquitoes
Conditions: proportion of about 10% by weight in a formulation

CCCCN(CCC(=O)OCC)C(C)=O [ethyl butylacetylaminopropionate, ethyl 3-(N-n-butyl-N-acetylamino)propionate]
protection times: up to 4 hours
